Source: article PMC11475408, “All‐Inorganic Polyoxometalates Act as Superchaotropic Membrane Carriers” (Advanced Materials (Deerfield Beach, Fla.), 2023)
Like-named read-outs stand apart in the source and are kept apart here. Values belong to the compound of their own block, whether it stands above or below them.

Columns and labels:
CHO‐K1 cells = assay: FITC-Arg8 uptake in live cells, confocal imaging; type: cell-based, Chinese hamster; settings: 30 min, 37 °C; for FITC-Arg8 uptake promoted by carrier: carrier 5 µM, 5 min, then FITC-Arg8 5 µM, four biological replicates
Description: CHO‐K1 cells were plated into µ‐Slide 8‐well plates (ibidi) at a density of ≈1 × 10^5 cells per well (per 1 mL) and incubated for 24 h in Ham's F‐12 medium containing 10% v/v fetal bovine serum and 1.0% penicillin streptomycin at 37 °C in a 5% CO2 atmosphere. The cells were washed twice with Hank's buffer, incubated for 5 min at 37 °C in Ham's F‐12 medium without phenol red with carrier (5 µM), and subsequently in Ham's F‐12 medium without phenol red with 5 µM FITC‐Arg8 for 30 min at 37 °C. Cells in the absence of carrier were used as control. The cells were washed twice with Hank's buffer containing 100 µg mL^−1 heparin and then washed twice with Ham's F‐12 medium without phenol red. The nuclear staining was performed by incubating the cells with 10 µg mL^−1 Hoechst 33 342 (bis‐benzimide H33342 trihydrochloride) for 10 min at 37 °C. Cells were directly imaged as stated above.

[1] = CF transport assay in EYPC⊃CF vesicles (carrier activity); type: biochemical; parameters: key to Carrier activity: ‐ – ‐: No detectable activity at pH 5.5 and 7.4; settings: for EC50: 5% error (SD); for Carrier activity: EYPC vesicles, pH 5.5 and 7.4, cargos heptaArg, protamine, polyArg ([AlMo6]: heptaArg and protamine only); for Transport activity (in words): EYPC⊃CF vesicles, neutral pH, carrier then cargo
Description: The capability of POMs to act as membrane carriers was explored first in large unilamellar vesicles (LUVs) loaded with carboxyfluorescein (CF).^[ [54], [55] ^] We selected […] representative cationic peptides, heptaarginine (heptaArg), heptalysine (heptaLys), protamine, and polyarginine (polyArg), as test cargos. Inside the LUVs, the CF dye was encapsulated at self‐quenching concentrations. With a suitable carrier, heptaArg can be taken up into the vesicles, bind with entrapped CF, and shuttle back to the exterior, diluting the previously quenched CF, and thereby restoring its fluorescence (Figure 1c). In the time‐resolved fluorescence experiments (Figure 2a), to test whether a particular POM acts as molecular carrier, the CF emission was continuously monitored during the addition of the inorganic carrier (t = 60 s) and after injection of the impermeable selected cargo (t = 120 s). Toward the end of the experiment (t = 600 s), the surfactant Triton X‐100 was added to release all the entrapped CF and allow normalization of the intensity data.
A thin lipid film was prepared by evaporating a lipid solution of EYPC (egg yolk phosphatidylcholine, 25 mg) in CHCl3 (1 mL) with a stream of nitrogen and then dried in vacuo overnight. The dry film was rehydrated with 1 mL buffer (50 mM CF, 10 mM Hepes, pH 7.4 or 50 mM CF, 10 mM Tris, pH 7.4) for 30 min at room temperature, subjected to freeze–thaw cycles (7 times) and extrusions (15 times) through a polycarbonate membrane (pore size 100 nm). Extravesicular components were removed by size exclusion chromatography (NAP‐25 column Sephadex G‐25 DNA grade) with 10 mM Hepes, 107 mM NaCl, pH 7.4, or 10 mM Hepes, 107 mM NaCl, pH 7.4. Phospholipid concentration was calculated by the Stewart assay.^[ [81] ^]
Acidic vesicles were prepared analogously but the rehydration and elution buffer were 50 mM CF, 10 mM Mes, pH 5.5 and 10 mM Mes, 107 mM NaCl, pH 5.5. respectively.
Vesicles stock solutions (5–10 µL) were diluted with the corresponding buffer in a disposable plastic cuvette and gently stirred (total volume 2000 µL, final lipid concentration 13 µM). Carboxyfluorescein fluorescence was monitored at λ em = 517 nm (λ ex = 492 nm) as a function of time after addition of POMs at 60 s, analyte at 120 s and Triton X‐100 (24 µL 1.2% wt/vol) at 600 s to lyse the vesicles, for calibration. Fluorescence intensities were normalized to fractional emission as (1) It=It−I0/I∞−I0 where I 0 = I t before POM addition and […] after lysis. For Hill analysis, I t before lysis was defined as transport activity, Y, and plotted against POM concentration, c, and fitted to the Hill Equation (2), to afford the activity in absence of POM, Y 0, the maximal activity, Y max, the concentration needed to achieve 50% of maximal activity, EC 50, and the Hill coefficient, n (2) Y=Y0+Ymax−Y0/1+EC50/c^n
In the transport measurements, where different carriers (POMs) are tested with the same cargo, the activator efficiency (E) is determined by their capacity to transport the impermeable cargo to the intravesicular region and is characterized by Y max, its maximal activity, and EC 50, the effective activator concentration. An ideal carrier reaches high Y max at low EC 50. To count both factors, the activator efficiency is defined as (3) E=YmaxpEC50/f were pEC 50 is the negative logarithm of the EC 50, and f a scaling factor, which was set to 20.6 to calibrate the highest (previously known) activation efficiency, E, as 10.^[ [55] ^]

[2] = Hydrolysis/stability of POMs in buffer by NMR; settings: for Hydrolysis/stability pH 7.5: 10 mM Hepes or Tris, pH 7.4; for Hydrolysis/stability pH 7.5 / Hydrolysis/stability pH 5.5: 107 mM NaCl, NMR, long-term (24 h and longer); for Hydrolysis/stability pH 5.5: 10 mM Mes; for Stability at pH 7.5 by NMR (in words): Hepes or Tris-HCl pH 7.5, 27Al, 31P or 183W NMR, fresh and aged 1-3 days
Description: First, their long‐term (24 h and longer) fate in aqueous solution (slightly acidic and neutral) was investigated by applying the active NMR nuclei in their composition (Table S9 and Figures S24–S37, see the Supporting Information for details).
NMR-spectroscopic characterization of identity and stability
NMR spectroscopy for all POMs tested was performed under experimental conditions.

[3] = test system: methicillin-resistant Staphylococcus aureus (SR3605, ATCC43300); settings: in combination with β-Lactamase, Mueller-Hinton broth, pH 7.4, 34 °C, cited from earlier work
Description: page 4: 2. Literature survey Table S1. Survey of experimentally proven membrane penetration of POMs according to a search in Scopus (“polyoxometalate” and “membrane penetration”) up to the submission date of the manuscript.

[4] = Membrane disruption of liposomes by POM alone (CF fluorescence, DLS); type: biochemical; settings: higher than 100 µM POM, 10 mM Tris, 107 mM NaCl, pH 7.4
Description: It should be noted that the addition of POMs alone (without cargo) retained the stability of the liposomes in the studied concentration range (up to 100 µM), that is, neither an increase in CF fluorescence nor changes in size distribution as obtained by dynamic light scattering experiments (DLS, see Figure S4, Supporting Information) were observed, which would have signaled membrane rupture. These negative controls allowed us to proceed to the carrier experiments, with added cargo.
DLS experiments of the vesicles were carried out on a Malvern Instruments DTS Nano 2000 Zeta‐Sizer. A POM concentration of 100 µM was chosen as default, since this is the highest concentration at which membrane transport was evaluated. The cargo concentration was set to be same as in the transport experiments, namely 10 µM for heptaarginine, 1 µM for protamine, and 0.1 µM for polyarginine. Note that the POMs themselves, with a size of ≈1 nm, fall below the detection limit (>10 nm) of the DLS instrument.
Figure S3. Transport activity, Y, for polyarginine (0.1 µM) in EYPC[…]CF liposomes as a function of the concentration of the different evaluated POMs. Solid lines correspond to the resulting fit with the Hill equation. Blue squares are data obtained at neutral pH, and red stars data obtained at acidic pH.
Table S4. Membrane transport parametersa) of active POMs at neutralb) and acidicc) pH.
HeptaArgd) Protaminee) PolyArgf) carrier pH Hydrolysis/Stability
Ymax [%]g) EC50h) [µM] E i) Ymax [%] EC50 [µM] E Ymax [%] EC50 [µM] E […]
Figure S5. Transport kinetics (left pannels), dose response curves (middle pannels) for cargo transport, and size distribution (by DLS, right pannels) for [PW12]3‒ (top) and [SiW12]4‒ (bottom), measured with EYPC[…]CF liposomes at pH 7.4, but preserving the POM solution at pH 1.2 before addition. As shown in panel a, the addition of [PW12]3‒ alone gave a fluorescence increase, pointing to membrane disruption, which was confirmed by DLS (panel c). […]

[5] = CF assay, EYPC LUVs, 0.1 µM polyArg, pH 7.4, read-out: PolyArg EC 50
[6] = CF assay, EYPC LUVs, 0.1 µM polyArg, pH 7.4, ±2% error (SD)
[7] = EYPC LUVs, 0.1 µM polyArg, pH 7.4, f = 20.6, 10% error

Hydrolysis/stability pH 7.5 [2]: Stable
Stability at pH 7.5 by NMR (in words) [2]: integrity at pH 7.5
Compound: (C4H12N)4[α‐HAl^IIIGe^IVW^VI 11O39(H2O)]·11H2O [[AlGeW11]^5‒]
Carrier activity [1]: ‐ – ‐ ^k)

Hydrolysis/stability pH 7.5 [2]: Stable
Hydrolysis/stability pH 5.5 [2]: Stable
Compound: B12Br12 ^2‒ [reference compound]
FITC-Arg8 uptake promoted by carrier (CHO‐K1 cells): did not achieve efficient uptake

Stability at pH 7.5 by NMR (in words) [2]: [SiIVWVI11O39]8‒ is predominant
Compound: K4[α‐Si^IVW^VI 12O40]·14H2O [[SiW12]^4‒]
Carrier activity [1]: ‐ – ‐ ^k) , ^m)
Cargo transport with POM solution kept at pH 1.2 ([1]; EYPC⊃CF liposomes at pH 7.4, POM solution preserved at pH 1.2 before addition): showed the desired cargo transport at acidic pH, without membrane disruption
Transport activity (in words) [1]: neither an interaction with the membrane nor cargo transport
Vesicle lysis at higher concentrations [4]: led to vesicle lysis

Hydrolysis/stability pH 7.5 [2]: Stable
Stability at pH 7.5 by NMR (in words) [2]: stable at pH 7.5
Compound: Na5[α‐Al^IIIW^VI 12O40]·12H2O [[AlW12]^5‒]
Carrier activity [1]: ‐ – ‐ ^k)

Second part, the compound before the results:

Compound: 5(6)‐fluorescein isothiocyanate‐labelled octaarginine [FITC‐Arg8]
Uptake of FITC-Arg8 without carrier (CHO‐K1 cells; FITC-Arg8 5 µM): minor punctate fluorescence

Compound: O=C(O)CCCc1ccc2ccc3cccc4ccc1c2c34 [PyBu^‒, pyrenebutyrate, reference compound]
HeptaArg Y max ([1]; CF assay, EYPC LUVs, 13 µM lipid, 10 µM heptaArg, 10 mM Hepes or Tris, 107 mM NaCl, pH 7.4, 10 min, Hill fit, triplicates, ±2% error (SD)): 100%
EC50 [1, 5]: 12 µM
PolyArg Y max [1, 6]: 91%
EC50 ([1]; CF assay, EYPC LUVs, 1 µM protamine, pH 7.4, read-out: Protamine EC 50): 39 µM
Protamine Y max ([1]; CF assay, EYPC LUVs, 1 µM protamine, pH 7.4, ±2% error (SD)): 77%
EC50 ([1]; CF assay, EYPC LUVs, 10 µM heptaArg, pH 7.4, carrier concentration for 50% of Ymax, read-out: HeptaArg EC 50): 100 µM
PolyArg E (activation efficiency) [1, 7]: 8.5
Protamine E (activation efficiency) ([1]; EYPC LUVs, 1 µM protamine, pH 7.4, f = 20.6, 10% error): 5.3
HeptaArg E (activation efficiency) ([1]; EYPC LUVs, 10 µM heptaArg, pH 7.4, E = Ymax(pEC50/f), f = 20.6, 10% error): 4.8
Efficacy when the sequence of addition was inverted ([1]; heptaarginine 10 µM, cargo before carrier (Figure S6)): significantly reduces its activity
FITC-Arg8 uptake promoted by carrier (CHO‐K1 cells): did not achieve efficient uptake
Hydrolysis/stability pH 7.5 [2]: Stable
Hydrolysis/stability pH 5.5 [2]: Stable

Compound: Cc1onc(-c2ccccc2)c1C(=O)N[C@@H]1C(=O)N2[C@@H]1SC(C)(C)[C@@H]2C(=O)O [oxacillin]
MIC ([3]; ref [8]): 256 µg/mL
MIC ([3]; ref [9]): 256 µg/mL

Compound: Na3[Al^III(OH)6Mo^VI 6O18]·2H2O [[AlMo6]^3‒]
EC50 [1, 5]: 11 µM
PolyArg Y max [1, 6]: 33%
PolyArg E (activation efficiency) [1, 7]: 3.1
Carrier activity [1]: ‐ – ‐ ^k)
Transport activity (in words) [1]: incipient transport activity, but only for polyarginine as cargo
Hydrolysis/stability pH 7.5 [2]: Stable
